In brackets after ≈: the same amount, converted by molar mass.
Columns and labels:
[1] = tested on: Fusarium virguliforme (Fv); assay: In vitro pathogen growth inhibition assay, Fv; type: cell-based; settings: ≥90% growth inhibition, 48 hours, vs 2% DMSO control, read-out: Compound Concentration (ppm) sufficient for ≥90% inhibition of Fv
Summary of the method: (§1)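 Spores in 17% V8 liquid medium, or 1.5 mm Rs mycelial plugs in ¼ PDB, incubated with compound; final concentration checked by OD600 for precipitation. OD readings at 24 and 48 h, blank-subtracted, plus visual ratings; value is concentration giving ≥90% growth inhibition.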

[2] = tested on: Mycosphaerella graminicola (synthetic Septoria tritici); assay: Foliar protection test for wheat septoria leaf blotch control; type: in vivo; settings: foliar spray on Triticum aestivum cv. WinterHawk, inoculated 1 hour after treatment, evaluated 16 days later
Septoria tritici (St) = assay: In vitro pathogen growth inhibition assay, St; type: cell-based; settings: Zymoseptoria tritici, 48 h, ≥90% growth inhibition; 48 hours; vs 2% DMSO control; read-out: Compound Concentration (ppm) sufficient for ≥90% inhibition of St
Summary of the method: as §1

[3] = tested on: Phytophthora capsici (Pc); assay: In vitro pathogen growth inhibition assay, Pc; type: cell-based; settings: 48 h, ≥90% growth inhibition, 48 hours, vs 2% DMSO control, read-out: Compound Concentration (ppm) sufficient for ≥90% inhibition of Pc
Summary of the method: as §1

Sphaerotheca fuliginea = assay: Foliar protection for cucumber powdery mildew control; type: in vivo; settings: foliar spray on Cucumis sativus cv. Straight Eight, inoculated 24 hours after treatment, evaluated 7 days later
Procedure: Plants (Cucumis sativus cv. Straight Eight) were grown for 10 days in 2.5-inch square pots containing Metromix 200 medium amended with fertilizer. For propagation, plants were maintained in a growth chamber at conditions of 23 to 27° C., 16 hour light cycle, ambient humidity, and with sub-irrigation as needed. After inoculation with the pathogen of Sphaerotheca fuliginea, plants were kept at conditions of 23 to 27° C., 16 hour light cycle, 60% relative humidity, and with sub-irrigation as needed to facilitate infection and disease development. […] An atomizer was used for applying the solution onto both sides of the leaves until thoroughly wetted. […] At 24 hours after treatment, the plants were moved to a cooler chamber and inoculated by shaking well-colonized, untreated stock plants above the treated plants. This allowed producing a settling cloud of spores and resulting in uniform infection. Inoculated plants were kept near other sporulating stock plants to allow for infection of newly emerging leaves. Efficacy was evaluated in 7 days later by examining leaves for colonization and growth of mildew. Table 5 lists the results of cucumber powdery mildew control at a compound concentration of 10 ppm or lower.

Phakopsora pachyrhizi = assay: Foliar protection test for Asian soybean rust control; type: in vivo; settings: foliar application to soybean (Glycine max AG4832), percent disease area evaluated 14 days later
[4] = tested on: Fusarium moniliforme (Fm); assay: In vitro pathogen growth inhibition assay, Fm; type: cell-based; settings: Fusarium verticillioides; ≥90% growth inhibition; 48 hours; vs 2% DMSO control; read-out: Compound Concentration (ppm) sufficient for ≥90% inhibition of Fm
Summary of the method: as §1

[5] = tested on: Collectotrichum graminicola (Cg); assay: In vitro pathogen growth inhibition assay, Cg; type: cell-based; settings: 48 h, ≥90% growth inhibition; 48 hours; vs 2% DMSO control; read-out: Compound Concentration (ppm) sufficient for ≥90% inhibition of Cg
Summary of the method: as §1

Botrtyis cinerea (Bc) = assay: In vitro pathogen growth inhibition assay, Bc; type: cell-based; settings: 48 h, ≥90% growth inhibition; 48 hours; vs 2% DMSO control; read-out: Compound Concentration (ppm) sufficient for ≥90% inhibition of Bc
Summary of the method: as §1

[6] = tested on: Blumeria graminis f. sp. hordei; assay: Foliar protection test for barley powdery mildew control; type: in vivo; settings: foliar spray on Hordeum vulgare cv. Perry, inoculated 24 hours after treatment, evaluated 7 days later
Procedure: Plants (Hordeum vulgare cv. Perry) were grown for 6 days in 2-inch square pots containing Metromix 200 medium amended with fertilizer. […] After inoculation with the pathogen of Blumeria graminis f. sp. hordei, plants were kept at conditions of 20 to 22° C., 70% relative humidity, and 200 uM of light to facilitate infection and disease development. […] An atomizer was used for applying the solution onto both sides of the leaves until thoroughly wetted. […] At 24 hours after treatment, the plants were moved to a cooler chamber and inoculated by shaking well-colonized, untreated stock plants above the treated plants. This allowed producing a settling cloud of spores and resulting in uniform infection. Efficacy was evaluated in 7 days later by examining leaves for colonization and growth of mildew. Table 4 lists the results of barley powdery mildew control at a compound concentration of 10 ppm or lower.

Rhizoctonia solani (Rs) = assay: In vitro pathogen growth inhibition assay, Rs (mycelial plugs); type: cell-based; settings: Rhizoctonia solani, 48 h, ≥90% growth inhibition; mycelial plugs; 48 hours; vs 2% DMSO control; read-out: Compound Concentration (ppm) sufficient for ≥90% inhibition of Rs
Summary of the method: as §1

Diplodia maydis (Dm) = assay: In vitro pathogen growth inhibition assay, Dm; type: cell-based; settings: Stenocarpella maydis, 48 h, ≥90% growth inhibition; 48 hours; vs 2% DMSO control; read-out: Compound Concentration (ppm) sufficient for ≥90% inhibition of Dm
Summary of the method: as §1

Puccinia triticina = assay: Foliar protection test for wheat leaf rust control; type: in vivo; settings: foliar application to wheat (Triticum aestivum cv. Winterhawk), evaluated 10 days later
Fusarium graminearum = type: in vivo; settings: spray on flowering Triticum aestivum cv. Samson, inoculated 24 hours after treatment, evaluated 14 days later

SMILES | IC90 [1] [µg/mL] | Septoria Leaf Blotch Control at a compound concentration of 25 ppm or lower [2] | IC90 (Septoria tritici (St)) [µg/mL] | IC90 [3] [µg/mL] | Cucumber Powdery Mildew Control at a compound concentration of 10 ppm or lower (Sphaerotheca fuliginea) | Asian Soybean Rust Control at a compound concentration of 25 ppm or lower (Phakopsora pachyrhizi) | IC90 [4] [µg/mL] | IC90 [5] [µg/mL] | IC90 (Botrtyis cinerea (Bc)) [µg/mL] | Barley Powdery Mildew Control at a compound concentration of 10 ppm or lower [6] | IC90 (Rhizoctonia solani (Rs)) [µg/mL] | IC90 (Diplodia maydis (Dm)) [µg/mL] | Wheat Leaf Rust Control at a compound concentration of 10 ppm or lower (Puccinia triticina) | Wheat Fusarium Head Blight Control at a compound concentration of 25 ppm or lower (Fusarium graminearum)
COc1ccc(F)cc1[C@H](Cn1c(=O)n([C@H](C)C(=O)N2CCCC2)c(=O)c2c(C)c(-n3nccn3)sc21)OCCC#N [Compound I-202, 3-((R)-1-(5-fluoro-2-methoxyphenyl)-2-(5-methyl-2,4-dioxo-3-((R)-1-oxo-1-(pyrrolidin-1-yl)propan-2-yl)-6-(2H-1,2,3-triazol-2-yl)-3,4-dihydrothieno[2,3-d]pyrimidin-1(2H)-yl)ethoxy)propanenitrile] | 0.4 (≈ 0.672 µM) | D (<25% control of wheat septoria leaf blotch) | > 50 | ≥ 50 | AA (≥85% control of cucumber powdery mildew) | A (from 70% to 84% control of Asian soybean rust) | 0.08 (≈ 0.134 µM) | 2 (≈ 3.36 µM) | ≥ 0.4 | A (from 70% to 84% control of barley powdery mildew) | 0.4 (≈ 0.672 µM) | 2 (≈ 3.36 µM) | A (from 70% to 84% control of wheat leaf rust) | D (<25% control of wheat fusarium head blight)
COc1ccccc1[C@@H](O)Cn1c(=O)n(C(C)(C)C(=O)NC(C)C)c(=O)c2c(C)c(-n3nccn3)sc21 [Compound I-316, (R)-2-(1-(2-hydroxy-2-(2-methoxyphenyl)ethyl)-5-methyl-2,4-dioxo-6-(2H-1,2,3-triazol-2-yl)-1,4-dihydrothieno[2,3-d]pyrimidin-3 (2H)-yl)-N-isopropyl-2-methylpropanamide] | 0.08 (≈ 0.152 µM) | A (from 70% to 84% control of wheat septoria leaf blotch) | > 50 | ≥ 10 | AA (≥85% control of cucumber powdery mildew) | A (from 70% to 84% control of Asian soybean rust) | 0.08 (≈ 0.152 µM) | 2 (≈ 3.8 µM) | 0.4 (≈ 0.76 µM) | AA (≥85% control of barley powdery mildew) | 0.08 (≈ 0.152 µM) | 2 (≈ 3.8 µM) | AA (≥85% control of wheat leaf rust) | C (from 25 to 49% control of wheat fusarium head blight)
CCNC(=O)C(C)(C)n1c(=O)c2c(C)c(-n3nccn3)sc2n(C[C@H](OCCC#N)c2ccccc2OC)c1=O [Compound I-208, (R)-2-(1-(2-(2-cyanoethoxy)-2-(2-methoxyphenyl)ethyl)-5-methyl-2,4-dioxo-6-(2H-1,2,3-triazol-2-yl)-1,4-dihydrothieno[2,3-d]pyrimidin-3 (2H)-yl)-N-ethyl-2-methylpropanamide] | 0.4 (≈ 0.707 µM) | AA (≥85% control of wheat septoria leaf blotch) | > 50 | > 50 | AA (≥85% control of cucumber powdery mildew) | AA (≥85% control of Asian soybean rust) | 0.4 (≈ 0.707 µM) | 2 (≈ 3.54 µM) | 0.4 (≈ 0.707 µM) | AA (≥85% control of barley powdery mildew) | 0.08 (≈ 0.141 µM) | 2 (≈ 3.54 µM) | AA (≥85% control of wheat leaf rust) | C (from 25 to 49% control of wheat fusarium head blight)
COc1ccc(F)cc1[C@@H](O)Cn1c(=O)n([C@@H](C)C(=O)N(C)C(C)C)c(=O)c2c(C)c(-n3nccn3)sc21 [Compound I-189, (S)-2-(1-((R)-2-(5-fluoro-2-methoxyphenyl)-2-hydroxyethyl)-5-methyl-2,4-dioxo-6-(2H-1,2,3-triazol-2-yl)-1,4-dihydrothieno[2,3-d]pyrimidin-3 (2H)-yl)-N-isopropyl-N-methylpropanamide] | 0.4 (≈ 0.734 µM) | A (from 70% to 84% control of wheat septoria leaf blotch) | 50 (≈ 91.8 µM) | > 50 | AA (≥85% control of cucumber powdery mildew) | A (from 70% to 84% control of Asian soybean rust) | 0.08 (≈ 0.147 µM) | 0.4 (≈ 0.734 µM) | 0.4 (≈ 0.734 µM) | AA (≥85% control of barley powdery mildew) | 0.08 (≈ 0.147 µM) | 0.4 (≈ 0.734 µM) | AA (≥85% control of wheat leaf rust) | C (from 25 to 49% control of wheat fusarium head blight)
COc1ccc(F)cc1[C@H](Cn1c(=O)n(C(C)(C)C(=O)NC(C)C)c(=O)c2c(C)c(-n3nccn3)sc21)OCC#N [Compound I-210, (R)-2-(1-(2-(cyanomethoxy)-2-(5-fluoro-2-methoxyphenyl)ethyl)-5-methyl-2,4-dioxo-6-(2H-1,2,3-triazol-2-yl)-1,4-dihydrothieno[2,3-d]pyrimidin-3 (2H)-yl)-N-isopropyl-2-methylpropanamide] | 0.4 (≈ 0.685 µM) | AA (≥85% control of wheat septoria leaf blotch) | > 50 | > 50 | AA (≥85% control of cucumber powdery mildew) | AA (≥85% control of Asian soybean rust) | 2 (≈ 3.43 µM) | ≥ 0.4 | 0.4 (≈ 0.685 µM) | AA (≥85% control of barley powdery mildew) | 0.08 (≈ 0.137 µM) | 0.4 (≈ 0.685 µM) | A (from 70% to 84% control of wheat leaf rust) | C (from 25 to 49% control of wheat fusarium head blight)

Source: US10941157B2, “Pesticidal compositions and uses thereof” (Gilead Apollo, LLC, priority 2015, dated 2021)
